Several values for one entry are separate records, joined by “and”; a condition that tells them apart may be missing. Equal values may be shown once. Activity calls are given as the source filed them.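 Rule for the calls: active = compounds giving half or more protection of infected cells from virus-caused growth loss, again on retest; inactive = the rest.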 Where a SMILES comes first, the peptide text is derived from it. The star is where a group is joined. Fmoc = O=C(OCC1c2ccccc2-c2ccccc21)*; Boc = CC(C)(C)OC(=O)*; OBn = c1ccc(CO*)cc1; OtBu = CC(C)(C)O*
System: CEM cells HIV-1 protection, formazan growth assay
Assay: NCI AIDS Antiviral Assay
Conditions: for IC50: measured here: growth of uninfected CEM cells
In short: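 Human CEM cells, uninfected and HIV-1-infected, received five drug concentrations, and growth was read by soluble formazan assay. Compounds giving at least 50% protection were retested; reproducible 100% protection defined confirmed active.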

OCCCNc1ccnc2cc(Cl)ccc12
EC50: > 912 µM | IC50: 81.3 µM

CC(C)(C)OC(=O)NC(Cc1ccccc1)C(=O)NC(Cc1ccccc1)C(=O)NCC(=O)OCc1ccccc1 (stereo not drawn) (Boc-Phe-Phe-Gly-OBn; configuration not given here)
EC50: > 200 µM | IC50: 11.5 µM

COC(=O)c1nsc(OC)c1Cl
EC50: > 200 µM | IC50: > 200 µM

O=C1C(Cl)=C(Cl)C(=O)N1c1ccc(F)cc1
outcome: inactive

COc1ccc(C(=O)Oc2c(C#N)sc3c2c(=O)n(-c2ccccc2)c(=S)n3-c2ccccc2)cc1
EC50: > 200 µM | IC50: 5.13 µM

CC(C)(C)c1ccc(O)c(C(O)c2ccccn2)c1 (stereo not given)
EC50: > 200 µM | IC50: 81.3 µM

O=[N+]([O-])c1[nH]cnc1S
EC50: > 200 µM | IC50: > 200 µM

C[C@H](OCc1ccccc1)C(=O)N1CCS(=O)(=O)N2CCC[C@H]2C1=O
EC50: > 676 µM | IC50: > 676 µM

CS(=O)(=O)c1nc2nc[nH]c2c(=O)[nH]1
EC50: > 200 µM | IC50: > 200 µM

COc1cc(O)c2c(=O)c3c(OC)c(O)ccc3oc2c1
EC50: > 200 µM | IC50: 56.2 µM

CC(C)C(NC(=O)OCC1c2ccccc2-c2ccccc21)C(=O)NC(CCC(=O)OC(C)(C)C)C(=O)OC(C)(C)C (stereo not given) (Fmoc-Val-Glu(OtBu)-OtBu; configuration not given here)
EC50: > 200 µM | IC50: 24.5 µM

O=C1OCCN1N1C(=O)CC2(CCN(Cc3ccccc3)CC2)C1=O
EC50: > 200 µM | IC50: > 200 µM

CC1(C)OC2OC(C(O)COC(=O)c3ccccc3)C(F)C2O1 (stereo not given)
EC50: > 209 µM | IC50: > 209 µM

O=C(O)c1ccc([As](=O)(O)O)c([N+](=O)[O-])c1
EC50: > 200 µM | IC50: > 200 µM

O=C1C[C@H]2[C@@H](O1)[C@@H](O)CN1C(=O)c3ccccc3[C@H]21
EC50: > 200 µM | IC50: > 200 µM

O=[N+]([O-])c1ccc(Cl)cc1N/N=C/c1ccnc2ccccc12
outcome: inactive

CC1=C(C(=O)Nc2cc(F)c(F)cc2F)C(c2ccc(N(C)C)cc2)C(C(=O)Nc2cc(F)c(F)cc2F)=C(C)N1
EC50: > 23.4 µM | IC50: > 23.4 µM

Nc1nc2ncc(CNc3ccc(C(=O)NC(CCC(=O)NC(CCC(=O)NC(CCC(=O)NC(CCC(=O)NC(CCC(=O)O)C(=O)O)C(=O)O)C(=O)O)C(=O)O)C(=O)O)cc3)nc2c(=O)[nH]1 (stereo not given)
EC50: > 100 µM | IC50: > 100 µM

Nc1cc(C(=O)O)ccc1O
EC50: > 200 µM | IC50: 39.8 µM

CCCCC#COS(=O)(=O)c1ccc(C)cc1
EC50: > 251 µM | IC50: 138 µM

Clc1cc(Br)c2c3c(c(Br)cc(Cl)c13)C(Br)=C2Br
EC50: > 200 µM | IC50: 20 µM

COc1cc([C@@H]2c3cc4c(cc3[C@@H](OC3OC5CO[C@@H](c6cccs6)OC5C(O)C3O)[C@H]3COC(=O)[C@H]23)OCO4)cc(OC)c1O (stereo not given in full)
EC50: > 0.398 µM | IC50: 0.00174 µM

CCCCCCCCCCOCC(COCCOCC(COCCCCCCCCCC)OCCCS(=O)(=O)O)OCCCS(=O)(=O)O (stereo not given)
EC50: > 204 µM | IC50: 107 µM

C[C@]12CC[C@H](OC(=O)CCC(=O)O)C[C@H]1CC[C@@H]1[C@@H]2CC[C@]2(C)C(c3ccc(=O)oc3)CC[C@]12O (stereo not given in full)
EC50: > 0.2 µM | IC50: 0.0162 µM

CCOC(=O)/C=C/CCC(C)(C)COC(C)=O
outcome: inactive

COC1OC(COC(=O)NCCCCC(=O)C(F)(F)C(F)(F)C(F)(F)C(F)(F)C(F)(F)C(F)(F)C(F)(F)F)C(O)C(O)C1O (stereo not given)
EC50: > 200 µM | IC50: 2.95 µM and 6.03 µM

Cc1ccc2c(c1)C(=O)c1[nH]c3ccc(F)cc3c1CO2
EC50: > 200 µM | IC50: > 200 µM

OC(c1cccnc1)C(F)(F)c1nc2ccccc2o1 (stereo not given)
EC50: > 200 µM | IC50: > 200 µM

C/C=C/C[P+](Cc1ccccc1)(c1ccccc1)c1ccccc1
EC50: > 603 µM | IC50: 4.17 µM

Nc1nc(NCCOCP(=O)(O)O)c(C=O)c(=O)[nH]1
EC50: > 200 µM | IC50: > 200 µM

CN1CC2=C(NCNS2(=O)=O)N(C)C1
EC50: > 148 µM | IC50: > 148 µM

CC(=N\N=C\c1ccccn1)/C(C)=N/N=C/c1ccccn1
EC50: > 100 µM | IC50: 14.1 µM

Cc1occc1C(=S)Nc1ccc(Cl)c(COC(C)(C)C)c1
EC50: 5.13 µM | IC50: 29.5 µM

NC(=O)c1cc(NC(=O)c2ccc(C(=O)Nc3cc(C(N)=O)cc(C4=NCCN4)c3)cc2)cc(C2=NCCN2)c1
EC50: > 100 µM | IC50: > 100 µM

CCc1c(Cc2cc(C)cc(C)c2)n(COCCC[Se]c2ccccc2)c(=O)[nH]c1=O
EC50: 0.407 µM | IC50: 12 µM

CNC(=O)c1ccccc1[Se][Se]c1ccccc1C(=O)NC
EC50: 3.55 µM | IC50: 11 µM

CN1CCN(c2cc3nsnc3c3nsnc23)CC1
EC50: > 200 µM | IC50: > 200 µM

[Cl][Cu+].[NH-]C(Cc1c[nH]cn1)C(=O)O (stereo not given)
EC50: > 46.8 µM | IC50: 26.9 µM

CN1COCN=C1NC#N
EC50: > 631 µM | IC50: > 631 µM

From PubChem BioAssay AID179 (DTP/NCI, 2004)
